Entries after “also recorded” stand apart in the source; their conditions may differ.
Key:
[1] = target: T1, tropomyosin E180G mutant-containing thin filaments (Homo sapiens, UniProt P19429+P45379+P63316); assay: Single [Ca2+] in vitro motility assay screen for re-coupling; assay type: biochemical; conditions: for Coupling Difference (Initial Screen E180G): 100 μM compound, 0.037 μM Ca2+, difference between motility (%) in phosphorylated and unphosphorylated thin filaments, TPM1 E180G, >10% = re-coupling; for EC50: dose-response of % motility difference at 0.037 μM Ca2+, Hill fit
T1 construct: isolate troponin from 100 mg of donor heart tissue; from tissue; host or cells: troponin: human donor heart; tropomyosin: baculovirus/Sf9 (gift); actin: rabbit fast-twitch skeletal muscle
Method: (§1) Thin filaments were reconstituted with 10 nM rabbit skeletal or mouse cardiac muscle α-actin (labeled with TRITC phalloidin), tropomyosin (40–60 nM), and troponin (60 nM) to study Ca^2+-regulation of filament motility by the quantitative in vitro motility assay (IVMA) (Fraser and Marston, [1995]; Messer et al., [2007]). Thin filament movement over a bed of immobilized rabbit fast skeletal muscle heavy meromyosin (100 μg/ml) was compared in paired motility cells, in which troponin varied by a single factor (mutation, phosphorylation state, or treatment with drug). The temperature was set to 29°C. Filament movement was recorded and analyzed as previously described (Marston et al., [1996]), yielding two parameters, the fraction of filaments moving and the speed of moving filaments. Only the fraction of filaments motile is used in this study.
For drug screening, motility was measured with paired phosphorylated and unphosphorylated tropomyosin E180G mutant-containing thin filaments at a fixed 0.037 μM Ca^2+. Most assays were single measurements.
For the rapid screening of compounds, we devised a single Ca^2+ concentration assay. This is illustrated in Figures 2A,B for quercetin. The test system contains skeletal muscle actin, human sequence recombinant tropomyosin 1.1 containing the E180G HCM-associated mutation and human cardiac troponin from donor hearts in the phosphorylated and unphosphorylated form. At 0.037 μM Ca^2+ the filaments are about 40% motile irrespective of phosphorylation level whilst when quercetin is added the phosphorylated Ca^2+ activity curve shifts to the right and % motility at 0.037 μM Ca^2+ drops, whilst the unphosphorylated level is unchanged. We have set a difference between phosphorylated and unphosphorylated >10% as indicating re-coupling activity. This assay method can also be used to construct a dose-response curve as shown. We investigated compounds in 4 categories.
Figure 2 Single [Ca^2+] screen for re-coupling compounds. […] Solid lines, phosphorylated state; dotted lines, unphosphorylated state. Purple lines and points, E180G thin filaments; green lines and points, E180G thin filaments + Quercetin (B) Dose -response curve for quercetin recoupling activity measured at a constant concentration of 0.037 μM Ca^2+. INSET, kinetic analysis of dose response curve; difference between phosphorylated and unphosphorylated states is plotted against quercetin concentration. The Hill equation is fitted to the data, EC50 = 8 μM. (C,D) The effect of 100 μM drug treatment on the difference between % of motility of phosphorylated and unphosphorylated tropomyosin E180G mutant-containing thin filaments at 0.037 μM Ca^2+. (C) EGCG-related molecules (for structures 1–28 see Figure S1 and Table 1). (D) Silybin, related compounds and other HsP90 inhibitors and Ca^2+ desensitizers. The threshold for positive re-coupling was set at a 10% difference (dotted line).

[2] = target: T2, wild-type thin filaments (Homo sapiens, UniProt P19429+P45379+P63316); assay: IVMA Ca2+-activation curves, wild-type thin filaments; assay type: biochemical; conditions: ratio of EC50 in presence and absence of compound, phosphorylated and unphosphorylated states
T2 construct: isolate troponin from 100 mg of donor heart tissue; from tissue; host or cells: troponin: human donor heart; actin: rabbit skeletal muscle
Method: as §1
The fraction motile was measured over a range of Ca^2+ concentrations to generate Ca^2+-activation curves. The data were fitted to the 4-variable Hill equation to yield a value for EC50 and nH. Most assays of the effect of compounds are single measurements.
EC50 for Ca2+ activation of phosphorylated and unphosphorylated thin filaments incorporating troponin from HCM and DCM tissue samples that are uncoupled was measured by in vitro motility assay in the presence and absence of 100 µM EGCG. […]

[3] = test system: mutant-containing thin filaments; assay: IVMA Ca2+-activation curves, collected uncoupled mutant thin filaments; assay type: biochemical; conditions: every uncoupling mutation tested; 100 μM EGCG
Method: as §1, with “Only the fraction of filaments motile is used in this study.” left out
(§2) The fraction motile was measured over a range of Ca^2+ concentrations to generate Ca^2+-activation curves. […]
We measured the Ca^2+ activation of contractility using an in vitro motility assay that measures the movement of reconstituted thin filaments over a bed of immobilized myosin heads. […] Thus, the effect of EGCG is independent of the mutation that induced uncoupling; in addition, both in man and cat, HCM cases were found where no mutation in sarcomeric genes was detected yet the thin filaments were uncoupled and they could also be re-coupled by EGCG (Bayliss et al., [2012]; Messer et al., [2016]). […]

[4] = test system: isolated cardiomyocytes from ACTC E99K HCM transgenic mice; assay: Lusitropic effect of dobutamine in isolated cardiomyocytes; assay type: cell-based; conditions: blunted in ACTC E99K mouse cardiomyocytes; preliminary experiments
Text: The main effect of uncoupling of the modulation of Ca^2+ sensitivity by TnI phosphorylation is the loss of the lusitropic response to beta adrenergic stimulation, which is usually accompanied by blunting of the whole physiological adrenergic response.

[5] = test system: transgenic HCM mouse model; design: method as in Tadano et al., 2010; conditions: ref Tadano et al., 2010; cited from earlier work
[6] = target: T3, thin filaments containing TnC G159D (TNNC1 G159D, DCM) (Homo sapiens, UniProt P19429+P45379+P63316, G159D); assay: IVMA Ca2+-activation curves, TNNC1 G159D; assay type: biochemical; conditions: phosphorylated and unphosphorylated TnC G159D thin filaments
T3 construct: TnC G159D mutant troponin was extracted from a mutant human heart sample; from tissue; host or cells: mutant human heart sample (troponin); rabbit skeletal muscle (actin)
Text: Recombinant human sequence tropomyosin was a gift from Kristen Nowak and Elyshia MacNamara, University, Western Australia. Wild-type α-tropomyosin (Tpm1.1) and mutant E180G tropomyosin were expressed in a baculovirus/Sf9 system (Akkari et al., [2002]; Marston et al., [2013]). Skeletal muscle F-actin and myosin were isolated from rabbit fast-twitch skeletal muscle as previously described (Messer et al., [2007]). TnC G159D mutant troponin was extracted from a mutant human heart sample (Dyer et al., [2009]), E99K mutant cardiac actin was extracted from the E99K transgenic mouse heart (Song et al., [2013]).
Thin filaments were reconstituted with 10 nM rabbit skeletal or mouse cardiac muscle α-actin (labeled with TRITC phalloidin), tropomyosin (40–60 nM), and troponin (60 nM) to study Ca^2+-regulation of filament motility by the quantitative in vitro motility assay (IVMA) (Fraser and Marston, [1995]; Messer et al., [2007]). […] Filament movement was recorded and analyzed as previously described (Marston et al., [1996]), yielding two parameters, the fraction of filaments moving and the speed of moving filaments. […]
as §2

[7] = dose response of motile percentage, Figure S2B

Structure (SMILES)	Coupling Difference (Initial Screen E180G) [1]	EC50 [1]	effect on Ca2+-sensitivity of wild-type thin filaments, in words [2]	restoration of coupling in uncoupled thin filaments, in words [3]	lusitropic effect of dobutamine, in words [4]	impaired pump function due to diastolic dysfunction, in words [5]	dose at which recoupling begins [1, 7]	dose of peak recoupling [1, 7]	effect on Ca2+-activation curves (desensitizer / re-coupler), in words [6]
O=C(O[C@@H]1Cc2c(O)cc(O)cc2O[C@@H]1c1cc(O)c(O)c(O)c1)c1cc(O)c(O)c(O)c1 [EGCG, epigallocatechin-3 gallate]	23.0%	59 µM	significant desensitizer	restore the coupling	anomalous	restored the impaired pump function			
COc1cc([C@@H]2Oc3cc([C@H]4Oc5cc(O)cc(O)c5C(=O)[C@@H]4O)ccc3O[C@H]2CO)ccc1O [Silybin B]	55%	39 µM			restored		50 µM	100 µM	pure recoupler; also recorded: pure recoupling
